Measurements as given in ChEMBL document CHEMBL4364250, “Improvement of Asparagine Ethylenediamines as Anti-malarial Plasmodium-Selective Proteasome Inhibitors” (J Med Chem, 2019).
Calls of active or inactive are those of the source. The calls are words filed in the database; no cut-off is given here.

Assays:
[1] = Inhibition of Plasmodium falciparum 20S proteasome beta5 subunit using suc-LLVY-AMC as substrate in presence of beta2 inhibitor WLW-VS
[2] = biological target: T1, Proteasome Macropain subunit MB1 (Homo sapiens, UniProt P28074); assay: Inhibition of human beta5 20S constitutive proteasome using suc-LLVY-AMC as substrate
T1 sequence (P28074 whole entry): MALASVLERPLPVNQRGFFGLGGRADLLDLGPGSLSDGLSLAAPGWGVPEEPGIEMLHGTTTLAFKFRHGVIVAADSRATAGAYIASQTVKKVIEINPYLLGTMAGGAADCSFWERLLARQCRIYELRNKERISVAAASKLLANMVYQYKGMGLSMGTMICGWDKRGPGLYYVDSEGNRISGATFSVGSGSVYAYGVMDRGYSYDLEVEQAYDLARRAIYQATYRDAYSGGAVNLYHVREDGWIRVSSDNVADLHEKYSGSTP

[3] = tested on: Karpas-1106P; assay: Cytotoxicity against human KARPAS1106P cells; assay type: cell-based
[4] = tested on: beta5 subunit of human 20S immunoproteasome; assay: Selectivity ratio of IC50 for human beta5 20S immunoproteasome to IC50 for Plasmodium falciparum 20S proteasome beta5 subunit; assay type: toxicity; details: read-out: Ratio IC50
[5] = tested on: Plasmodium falciparum; assay: Antimalarial activity against erythrocytic stage of Plasmodium falciparum 3D7 measured after 72 hrs by SYBR green dye based fluorescence assay; assay type: functional, organism-based; details: 3D7, 72 h
[6] = biological target: T2, Proteasome subunit beta type-8 (Homo sapiens, UniProt P28062); assay: Inhibition of human beta5 20S immunoproteasome using Ac-ANW-AMC as substrate
T2 sequence (P28062 whole entry): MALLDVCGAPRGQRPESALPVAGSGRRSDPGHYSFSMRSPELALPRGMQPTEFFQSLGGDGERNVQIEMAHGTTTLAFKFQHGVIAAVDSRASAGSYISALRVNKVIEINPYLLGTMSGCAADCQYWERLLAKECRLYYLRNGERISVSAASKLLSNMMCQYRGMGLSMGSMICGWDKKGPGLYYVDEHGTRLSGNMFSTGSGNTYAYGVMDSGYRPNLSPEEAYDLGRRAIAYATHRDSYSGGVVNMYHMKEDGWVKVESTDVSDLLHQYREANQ

[7] = tested on: beta5 subunit of human 20S constitutive proteasome; assay: Selectivity ratio of IC50 for human beta5 20S constitutive proteasome to IC50 for Plasmodium falciparum 20S proteasome beta5 subunit; assay type: toxicity; details: read-out: Ratio IC50
[8] = tested on: HepG2; assay: Cytotoxicity against human HepG2 cells; assay type: cell-based
[9] = tested on: Plasmodium falciparum; assay: Inhibition of MV151 binding to Plasmodium falciparum 20S proteasome beta2 subunit preincubated for 1 hr followed by MV151 addition and measured after 1 hr by fluorescence assay
[10] = tested on: Plasmodium falciparum; assay: Inhibition of MV151 binding to Plasmodium falciparum 20S proteasome beta1 subunit preincubated for 1 hr followed by MV151 addition and measured after 1 hr by fluorescence assay
[11] = tested on: Plasmodium falciparum; assay: Antimalarial activity against erythrocytic stage of Plasmodium falciparum Dd2 harboring 20S beta5 proteasome A49S mutant measured after 72 hrs by SYBR green dye based fluorescence assay; assay type: functional, organism-based; details: Dd2, 72 h
[12] = tested on: Plasmodium falciparum; assay: Resistance index, ratio of EC50 for erythrocytic stage of Plasmodium falciparum Dd2 harboring 20S beta5 proteasome A49S mutant to EC50 erythrocytic stage of Plasmodium falciparum Dd2; assay type: functional
[13] = tested on: Plasmodium falciparum; assay: Antimalarial activity against erythrocytic stage of Plasmodium falciparum Dd2 measured after 72 hrs by SYBR green dye based fluorescence assay; assay type: functional, organism-based; details: Dd2, 72 h
[14] = tested on: Plasmodium falciparum; assay: Antimalarial activity against erythrocytic stage of Plasmodium falciparum Dd2 harboring 20S beta2 proteasome A117D mutant measured after 72 hrs by SYBR green dye based fluorescence assay; assay type: functional, organism-based; details: Dd2, 72 h
[15] = tested on: Plasmodium falciparum; assay: Resistance index, ratio of EC50 for erythrocytic stage of Plasmodium falciparum Dd2 harboring 20S beta6 proteasome A117D mutant to EC50 erythrocytic stage of Plasmodium falciparum Dd2
[16] = Permeability of the compound at pH 7.4 by PAMPA; assay type: ADME; details: read-out: permeability
[17] = Clearance in human liver microsomes; assay type: ADME, Microsome; details: read-out: CLH
[18] = Clearance in rat liver microsomes; assay type: ADME, Microsome; details: read-out: CLH
[19] = Clearance in mouse liver microsomes; assay type: ADME, Microsome; details: read-out: CLH

| Structure (SMILES) | IC50 [1] | IC50 [2] | EC50 [3] | selectivity ratio [4] | EC50 [5] | IC50 [6] | selectivity ratio [7] | EC50 [8] | inhibition [9] | inhibition [10] | EC50 [11] | Ratio EC50 [12] | EC50 [13] | EC50 [14] | Ratio EC50 [15] | Papp [16] | microsomal CLint [17] | microsomal CLint [18] | microsomal CLint [19] |
| --- | --- | --- | --- | --- | --- | --- | --- | --- | --- | --- | --- | --- | --- | --- | --- | --- | --- | --- | --- |
| COc1cc(OC)cc(C(=O)NCCNC(=O)[C@H](CC(=O)NC(C)(C)C)NS(=O)(=O)c2ccc(C)cc2)c1 | 4060 nM | > 100 µM | > 11.1 µM | 2.5 | > 2770 nM | 9970 nM | > 24.7 | > 11 µM |  |  |  |  |  |  |  |  |  |  |  |
| Cc1ccc(S(=O)(=O)N[C@@H](CC(=O)NC(C)(C)C)C(=O)NCCNC(=O)c2ccccc2O)cc1 | 6.1 nM | 0.409 µM | > 11.1 µM | 4 | 9.6 nM | 24 nM | 67 | > 11 µM |  |  |  |  |  |  |  |  |  |  |  |
| Cc1ccc(S(=O)(=O)N[C@@H](CC(=O)NC(C)(C)C)C(=O)NCCNC(=O)c2cc(-c3ccccc3F)ccc2F)cc1 |  | 0.11 µM |  |  | 1.6 nM | 4 nM |  |  | inactive | inactive |  |  |  |  |  |  |  |  |  |
| Cc1ccc(S(=O)(=O)N[C@@H](CC(=O)NC(C)(C)C)C(=O)NCCNC(=O)c2ccccc2Cl)cc1 | 211 nM | 26 µM | > 11.1 µM | 6.6 | 98 nM | 1400 nM | 123 | > 11 µM |  |  |  |  |  |  |  |  |  |  |  |
| CC(C)C[C@H](NC(=O)[C@H](Cc1ccccc1)NC(=O)c1cnccn1)B(O)O [BORTEZOMIB] |  |  |  |  |  |  |  |  |  |  | 1020 nM | 2.4 | 419 nM | 106 nM | 0.25 |  |  |  |  |
| Cc1ccc(S(=O)(=O)N[C@@H](CC(=O)NC(C)(C)C)C(=O)NCCNC(=O)c2cccc(C(F)(F)F)c2)cc1 | 250 nM | 37.1 µM | > 11.1 µM | 3.1 | 167 nM | 763 nM | 148 | > 11 µM |  |  |  |  |  |  |  |  |  |  |  |
| COc1cccc(C(=O)NCCNC(=O)[C@H](CC(=O)NC(C)(C)C)NS(=O)(=O)c2ccc(C)cc2)c1 | 8.9 nM | 0.506 µM | > 11.1 µM | 4.3 | 2.3 nM | 38 nM | 57 | > 11 µM |  |  | 252 nM | 101 | 2.5 nM | 63.4 nM | 25 | 15.9 ×10⁻⁶ cm/s | 202 µL/min/mg | 115 µL/min/mg | 142 µL/min/mg |
| Cc1ccc(S(=O)(=O)N[C@@H](CC(=O)NC(C)(C)C)C(=O)NCCNC(=O)c2ccc(Cl)cc2)cc1 | 113 nM | 5 µM | > 11.1 µM | 0.3 | 130 nM | 38 nM | 44 | > 11 µM |  |  |  |  |  |  |  |  |  |  |  |
| Cc1ccc(S(=O)(=O)N[C@@H](CC(=O)NC(C)(C)C)C(=O)NCCNC(=O)c2cc(C)ccn2)cc1 | 639 nM | > 100 µM | > 11.1 µM | 4.9 | 227 nM | 3110 nM | > 156 | > 11 µM |  |  |  |  |  |  |  |  |  |  |  |
| Cc1ccc(S(=O)(=O)N[C@@H](CC(=O)NC(C)(C)C)C(=O)NCCNC(=O)c2cc(Cl)ccc2Cl)cc1 | 197 nM | > 100 µM | > 11.1 µM | 28.7 | 118 nM | 5650 nM | > 507 | > 11 µM |  |  |  |  |  |  |  |  |  |  |  |
| Cc1ccc(S(=O)(=O)N[C@@H](CC(=O)NC(C)(C)C)C(=O)NCCNC(=O)c2ccccn2)cc1 | 1090 nM | 29.4 µM | > 11.1 µM | 1.9 | > 2770 nM | 2090 nM | 27 | > 11 µM |  |  |  |  |  |  |  |  |  |  |  |
| Cc1ccc(S(=O)(=O)N[C@@H](CC(=O)NC(C)(C)C)C(=O)NCCNC(=O)c2cc(Cl)ccn2)cc1 | 911 nM | > 100 µM | > 11.1 µM | 3.9 | 283 nM | 3560 nM | > 110 | > 11 µM |  |  |  |  |  |  |  |  |  |  |  |
| Cc1ccc(S(=O)(=O)N[C@@H](CC(=O)NC(C)(C)C)C(=O)NCCNC(=O)c2c(O)cccc2F)cc1 | 40.5 nM | 0.54 µM | > 11.1 µM | 1.8 | 83.7 nM | 72.7 nM | 13 | > 11 µM |  |  |  |  |  |  |  |  |  |  |  |
| CC(C)(C)NC(=O)C[C@H](NC(=O)CCc1ccccc1)C(=O)NCCNC(=O)c1cccc(-c2ccccc2)c1 |  |  |  |  |  |  |  |  |  |  | 1350 nM | 541 | 2.5 nM | 326 nM | 130 |  |  |  |  |
| Cc1ccc(S(=O)(=O)N[C@@H](CC(=O)NC(C)(C)C)C(=O)NCCNC(=O)c2cccc(C(C)C)c2)cc1 | 40.4 nM | 9.12 µM | > 11.1 µM | 5 | 98.5 nM | 200 nM | 225 | > 11 µM |  |  |  |  |  |  |  |  |  |  |  |
| Cc1ccc(S(=O)(=O)N[C@@H](CC(=O)NC(C)(C)C)C(=O)NCCNC(=O)c2cccc(O)c2)cc1 | 22.4 nM | 4.38 µM | > 11.1 µM | 21 | 15.4 nM | 475 nM | 195 | > 11 µM |  |  |  |  |  |  |  |  |  |  |  |
| Cc1ccc(S(=O)(=O)N[C@@H](CC(=O)NC(C)(C)C)C(=O)NCCNC(=O)Nc2ccccc2)cc1 | 2580 nM | > 100 µM | > 11.1 µM | 0.8 | > 2770 nM | 2090 nM | > 3.9 | > 11 µM |  |  |  |  |  |  |  |  |  |  |  |
| Cc1ccc(S(=O)(=O)N[C@@H](CC(=O)NC(C)(C)C)C(=O)NCCNC(=O)c2ccc(F)c(F)c2)cc1 | 126 nM | 6.04 µM | > 11.1 µM | 1.5 | 68.8 nM | 195 nM | 48 | > 11 µM |  |  |  |  |  |  |  |  |  |  |  |
| Cc1ccc(S(=O)(=O)N[C@@H](CC(=O)NC(C)(C)C)C(=O)NCCNC(=O)NCc2ccccc2)cc1 | 2770 nM | 46.6 µM | > 11.1 µM | 0.85 | 2140 nM | 2350 nM | 16.8 | > 11 µM |  |  |  |  |  |  |  |  |  |  |  |
| Cc1ccc(S(=O)(=O)N[C@@H](CC(=O)NC(C)(C)C)C(=O)NCCNS(=O)(=O)c2ccccc2)cc1 | 15100 nM | > 100 µM | > 11.1 µM | 0.2 | > 2770 nM | 2890 nM | > 6.6 | > 11 µM |  |  |  |  |  |  |  |  |  |  |  |
| Cc1ccc(S(=O)(=O)N[C@@H](CC(=O)NC(C)(C)C)C(=O)NCCNC(=O)c2cccc(F)c2)cc1 | 29.6 nM | 2.2 µM | > 11.1 µM | 4.3 | 11.7 nM | 128 nM | 74 | > 11 µM |  |  |  |  |  |  |  |  |  |  |  |
| Cc1ccc(S(=O)(=O)N[C@@H](CC(=O)NC(C)(C)C)C(=O)NCCNC(=O)c2ccc(F)cc2)cc1 | 121 nM | 6.7 µM | > 11.1 µM | 1.5 | 50.9 nM | 179 nM | 55 | > 11 µM |  |  |  |  |  |  |  |  | 149 µL/min/mg | 81 µL/min/mg | 49 µL/min/mg |
| CC(C)C[C@@H](/C=C/S(C)(=O)=O)NC(=O)[C@H](CC(C)C)NC(=O)[C@H](Cc1c[nH]c2ccccc12)NC(=O)CN1CCOCC1 |  |  |  |  |  |  |  |  |  |  | 26 nM | 0.28 | 91.6 nM | 7.3 nM | 0.08 |  |  |  |  |
| Cc1ccc(S(=O)(=O)N[C@@H](CC(=O)NC(C)(C)C)C(=O)NCCNC(=O)c2cccc(C#N)c2)cc1 | 390 nM | 40.2 µM | > 11.1 µM | 12 | 132 nM | 4690 nM | 103 | > 11 µM |  |  |  |  |  |  |  |  |  |  |  |
| Cc1cc(C(=O)N[C@@H](CC(=O)NC(C)(C)C)C(=O)NCCNC(=O)c2cccc(-n3cccn3)c2)no1 |  |  |  |  |  |  |  |  |  |  | > 2770 nM | >100 | 27.6 nM | 279 nM | 10 |  |  |  |  |
